SMILES strings stand for the structures.

The target of test [1] is S. aureus Alpha hemolysin (Staphylococcus aureus, UniProt P09616). Put plainly: cell-based.
Test [2] deals with hemolysin alpha from Staphylococcus aureus (Staphylococcus aureus, UniProt P09616). As to the kind of experiment: cell-based.
hemolysin alpha from Staphylococcus aureus, sequence (P09616 27-319 limits assumed): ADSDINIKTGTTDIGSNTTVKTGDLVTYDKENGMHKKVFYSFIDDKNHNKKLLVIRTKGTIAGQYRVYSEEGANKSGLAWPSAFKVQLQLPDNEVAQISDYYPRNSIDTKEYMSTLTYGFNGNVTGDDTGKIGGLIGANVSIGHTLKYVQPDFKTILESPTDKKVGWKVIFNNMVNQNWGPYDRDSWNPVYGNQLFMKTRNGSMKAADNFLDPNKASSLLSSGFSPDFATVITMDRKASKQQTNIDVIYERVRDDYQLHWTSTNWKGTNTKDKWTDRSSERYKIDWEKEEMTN

S. aureus Alpha hemolysin, sequence (P09616 27-319 limits assumed): as above

In turn, `Cc1cc2[nH]c(=O)c(=O)[nH]c2cc1S(=O)(=O)Nc1ccc(-c2cccnc2)c(Cl)c1` [Compound 29, N-(3-chloro-4-(pyridin-3-yl)phenyl)-7-methyl-2,3-dioxo-1,2,3,4-tetrahydroquinoxaline-6-sulfonamide] came in with an EC50 in test [1] (A549-LDH Assay activity) of 100 to 1000 nM. The compound further returned an IC50 in test [2] below 30 nM.
`O=c1[nH]c2ccc(S(=O)(=O)Nc3ccc(C4CC4)cc3)cc2[nH]c1=O` [drawing 470 (R^2 = H), reference compound]: the 50% effective concentration (EC50) worked out at 80 nM in test [1] (LDH Assay EC50) and 423 nM in test [2].
As to `Cc1cc2[nH]c(=O)c(=O)[nH]c2cc1S(=O)(=O)Nc1ccc(-c2ccc(F)c(C(N)=O)c2)c(Cl)c1` [Compound 389, 5-[2-chloro-4-[(7-methyl-2,3-dioxo-1,4-dihydroquinoxalin-6-yl)sulfonylamino]phenyl]-2-fluoro-benzamide], the EC50 in test [1] (A549-LDH Assay activity) is 30 to 100 nM; in test [2], below 30 nM.
As to `C#Cc1ccc(NS(=O)(=O)c2cc3[nH]c(=O)c(=O)[nH]c3cc2C)cc1` [Compound 130, N-(4-ethynylphenyl)-7-methyl-2,3-dioxo-1,2,3,4-tetrahydroquinoxaline-6-sulfonamide], the EC50 in test [1] (A549-LDH Assay activity) lay within 100 to 1000 nM. This compound registered an IC50 in test [2] of 100 to 1000 nM.
As to `Cc1cc2[nH]c(=O)c(=O)[nH]c2cc1S(=O)(=O)Nc1ccc(-c2ccccc2)c(Cl)c1` [Compound 1, N-(2-chloro-[1,1′-biphenyl]-4-yl)-7-methyl-2,3-dioxo-1,2,3,4-tetrahydroquinoxaline-6-sulfonamide], in test [1] (A549-LDH Assay activity), the EC50 is 30 to 100 nM. Also, in test [2], the IC50 is below 30 nM.
On to `Cc1cc2[nH]c(=O)c(=O)[nH]c2cc1S(=O)(=O)Nc1ccc(C2CC2)cc1` [drawing 470 (R^2 = CH3)], for which the EC50 came out at 18 nM in test [1] (LDH Assay EC50) and 63 nM in test [2].
`Cc1cc2[nH]c(=O)c(=O)[nH]c2cc1S(=O)(=O)Nc1ccc2ccccc2c1` [Compound 60, 7-methyl-N-(naphthalen-2-yl)-2,3-dioxo-1,2,3,4-tetrahydroquinoxaline-6-sulfonamide] returned an EC50 in test [1] (A549-LDH Assay activity) of 30 to 100 nM. The IC50 in test [2] lay within 30 to 100 nM.
In turn, `Cc1cc2[nH]c(=O)c(=O)[nH]c2cc1S(=O)(=O)Nc1ccc(C(C)(C)C)cc1` [Compound 83, N-(4-(tert-butyl)phenyl)-7-methyl-2,3-dioxo-1,2,3,4-tetrahydroquinoxaline-6-sulfonamide] showed an EC50 in test [1] (A549-LDH Assay activity) of 30 to 100 nM. This compound also came in with an IC50 in test [2] of 100 to 1000 nM.
Take `Cc1cc2[nH]c(=O)c(=O)[nH]c2cc1S(=O)(=O)Nc1ccc(-c2ccc(F)cc2)c(C#N)c1` [Compound 377, N-[3-cyano-4-(4-fluorophenyl)phenyl]-7-methyl-2,3-dioxo-1,4-dihydroquinoxaline-6-sulfonamide]: the EC50 in test [1] (A549-LDH Assay activity) and in test [2] was 100 to 1000 nM each time.
On to `Cc1cc2[nH]c(=O)c(=O)[nH]c2cc1S(=O)(=O)Nc1ccc(-c2ccc3c(c2)OCCO3)c(Cl)c1` [Compound 259, N-[3-chloro-4-(2,3-dihydro-1,4-benzodioxin-6-yl)phenyl]-7-methyl-2,3-dioxo-1,4-dihydroquinoxaline-6-sulfonamide], for which the values for the EC50 in test [1] (A549-LDH Assay activity) and in test [2] were 100 to 1000 nM and below 30 nM, respectively.
In the case of `CC(C)c1cc2[nH]c(=O)c(=O)[nH]c2cc1S(=O)(=O)Nc1ccc(-c2ccsc2)c(Cl)c1` [Compound 100, N-(3-chloro-4-(thiophen-3-yl)phenyl)-7-isopropyl-2,3-dioxo-1,2,3,4-tetrahydroquinoxaline-6-sulfonamide], the concentration giving a half-maximal response (EC50) in test [1] (A549-LDH Assay activity) lay in the range of 1000 to 6000 nM. In test [2], this compound registered an IC50 of 100 to 1000 nM.
The corresponding values for `O=c1[nH]c2cc(Cl)c(S(=O)(=O)Nc3ccc(C(F)(F)F)c(Cl)c3)cc2[nH]c1=O` [Compound 143, 7-chloro-N-(3-chloro-4-(trifluoromethyl)phenyl)-2,3-dioxo-1,2,3,4-tetrahydroquinoxaline-6-sulfonamide] are 1000 to 6000 nM and 100 to 1000 nM.
In the case of `Cc1cc2[nH]c(=O)c(=O)[nH]c2cc1S(=O)(=O)Nc1cc(C)c(-c2ccccc2F)c(C)c1` [Compound 51, N-(2′-fluoro-2,6-dimethyl-[1,1′-biphenyl]-4-yl)-7-methyl-2,3-dioxo-1,2,3,4-tetrahydroquinoxaline-6-sulfonamide], the EC50 in test [1] (A549-LDH Assay activity) lay within 30 to 100 nM. Besides, the IC50 in test [2] is 30 to 100 nM.
With `Cc1cc2[nH]c(=O)c(=O)[nH]c2cc1S(=O)(=O)Nc1ccc(-n2ccnn2)c(Cl)c1` [Compound 264, N-[3-chloro-4-(triazol-1-yl)phenyl]-7-methyl-2,3-dioxo-1,4-dihydroquinoxaline-6-sulfonamide], the EC50 in test [1] (A549-LDH Assay activity) and in test [2] was 100 to 1000 nM in each case.
The compound `Cc1cc(NS(=O)(=O)c2cc3[nH]c(=O)c(=O)[nH]c3cc2Cl)ccc1-c1ccoc1` [Compound 88, 7-chloro-N-(4-(furan-3-yl)-3-methylphenyl)-2,3-dioxo-1,2,3,4-tetrahydroquinoxaline-6-sulfonamide] registered an EC50 in test [1] (A549-LDH Assay activity) of 100 to 1000 nM. The IC50 in test [2] fell in the range of 30 to 100 nM.
On to `Cc1cc2[nH]c(=O)c(=O)[nH]c2cc1S(=O)(=O)Nc1cc(C)c(-c2ccccc2Cl)c(C)c1` [Compound 104, N-(2′-chloro-2,6-dimethyl-[1,1′-biphenyl]-4-yl)-7-methyl-2,3-dioxo-1,2,3,4-tetrahydroquinoxaline-6-sulfonamide], for which the EC50 in test [1] (A549-LDH Assay activity) fell in the range of 100 to 1000 nM. For the same compound, the IC50 in test [2] is 100 to 1000 nM.
In the case of `Cc1cc2[nH]c(=O)c(=O)[nH]c2cc1S(=O)(=O)Nc1ccc(-n2cncn2)c(Cl)c1` [Compound 263, N-[3-chloro-4-(1,2,4-triazol-1-yl)phenyl]-7-methyl-2,3-dioxo-1,4-dihydroquinoxaline-6-sulfonamide], the EC50 lay in the range of 100 to 1000 nM in test [1] (A549-LDH Assay activity) and 1000 to 3500 nM in test [2].
Take `Cc1cc2[nH]c(=O)c(=O)[nH]c2cc1S(=O)(=O)Nc1ccc(-c2ccc3[nH]ncc3c2)c(Cl)c1` [Compound 273, N-[3-chloro-4-(1H-indazol-5-yl)phenyl]-7-methyl-2,3-dioxo-1,4-dihydroquinoxaline-6-sulfonamide]: the EC50 in test [1] (A549-LDH Assay activity) lay in the range of 100 to 1000 nM; in test [2], 30 to 100 nM.
With `Cc1cc2[nH]c(=O)c(=O)[nH]c2cc1S(=O)(=O)Nc1cc(C)c(-c2cccc(Cl)c2)c(C)c1` [Compound 57, N-(3′-chloro-2,6-dimethyl-[1,1′-biphenyl]-4-yl)-7-methyl-2,3-dioxo-1,2,3,4-tetrahydroquinoxaline-6-sulfonamide], in test [1] (A549-LDH Assay activity), the EC50 fell in the range of 30 to 100 nM. This compound also showed an IC50 in test [2] of 30 to 100 nM.
`Cc1cc2[nH]c(=O)c(=O)[nH]c2cc1S(=O)(=O)Nc1cc(C)c(-c2cccs2)c(C)c1` [Compound 58, N-(3,5-dimethyl-4-(thiophen-2-yl)phenyl)-7-methyl-2,3-dioxo-1,2,3,4-tetrahydroquinoxaline-6-sulfonamide] showed an EC50 in test [1] (A549-LDH Assay activity) of 1000 to 6000 nM. Moreover, the IC50 in test [2] fell in the range of 30 to 100 nM.
With `CNc1cc2[nH]c(=O)c(=O)[nH]c2cc1S(=O)(=O)Nc1ccc(OC(F)(F)F)cc1` [Compound 381, 7-(methylamino)-2,3-dioxo-N-[4-(trifluoromethoxy)phenyl]-1,4-dihydroquinoxaline-6-sulfonamide], the EC50 in test [1] (A549-LDH Assay activity) and in test [2] was 100 to 1000 nM each time.
For the compound `CC(=O)c1ccccc1-c1ccc(NS(=O)(=O)c2cc3[nH]c(=O)c(=O)[nH]c3cc2C)cc1` [Compound 123, N-(2′-acetyl-[1,1′-biphenyl]-4-yl)-7-methyl-2,3-dioxo-1,2,3,4-tetrahydroquinoxaline-6-sulfonamide], the EC50 in test [1] (A549-LDH Assay activity) fell in the range of 1000 to 6000 nM. The IC50 in test [2] fell in the range of 100 to 1000 nM.

Values taken from patent US20240376084A1, “INHIBITORS OF ALPHA-HEMOLYSIN OF STAPHYLOCOCCUS AUREUS” (Helmholtz-Zentrum Fur Infektionsforschung GmbH, priority 2021, published 2024).
